Read-outs that look alike come from different tables or passages of the source.
Assays:
[1] = test system: primary human neutrophils; assay: luminol chemiluminescence assay of fMLP-induced ROS production; assay type: cell-based
Experimental: HL-60 cells were propagated in RPMI 1640 medium containing 10% heat inactivated fetal bovine serum, 2 mM L-glutamine, 100 U/mL penicillin/streptomycin at 37° C. in air containing 5% CO2. For differentiation, HL-60 cells were cultured in 1.3% dimethyl sulfoxide (DMSO) as previously described (Servant, G., et al. (1999) Mol Biol Cell 10, 1163-1178, hereby incorporated by reference in its entirety). Primary murine neutrophils were isolated from C57Bl/6 mouse bone marrow according to a published protocol (Filippi et al., (2004) Nat Immunol 5, 744-751, hereby incorporated by reference in its entirety) using a discontinuous Percoll (Pharmacia) gradient and were utilized immediately in experiments. Human neutrophils were obtained from fresh blood (IRB #2010-1855, Cincinnati Children's Hospital medical Center) following a well established protocol using density gradient separation from whole blood (Oh et al. (2008) J Vis Exp., 17, pii: 745, hereby incorporated by reference in its entirety). […]
Chemiluminescence was measured using GloMax®-96 Microplate Luminometer (Promega) (Tarpey et al., (2004) Am J Physiol Regul Integr Comp Physiol 286: R431-R444, hereby incorporated by reference in its entirety). […]

dHL-60 cells = assay: antioxidant (ROS scavenger) test in dHL-60 cells pre-stimulated with fMLP; assay type: cell-based, human; conditions: fMLP 30 min prior to treatment
Experimental: (A) Apoptosis analysis by FACS of HL-60 cells treated with compound or vehicle control for 2 hours prior to 7-AAD and Annexin V staining. (B) HL-60 cells from A were harvested and lysates were immunoblotted for levels of pPAK, and actin was used as a control for loading. (C) F-actin reorganization in freshly isolated fMLP-stimulated primary murine neutrophils was analyzed. […] Cells were exposed to a 10 μM dose of Phox-I1, Phox-I2, and Analog 13, and 200 nM nocodazole. (D) The effect of Phox-I on NOX4 mediated ROS production was tested in primary murine neutrophils transfected with a NOX4 expressing plasmid. 10 μM Phox-I1 was applied to the cells for 30 min prior to ROS assay by luminol chemiluminescence in the presence of HRP. The fMLP-stimulated ROS activity in the presence or absence of 10 uM Phox-I1 was measured in parallel. (E) The antioxidant abilities of these lead compounds were tested by prestimulating dHL-60 cells with fMLP for 30 minutes prior to treatment with Phox-I1 or Phox-I2. Levels of superoxide were analyzed by DCFDA assay and FACS. NAC, apocyanin, DPI, and NSC23766 treated cells served as controls. […] (G) For stability assay, DMSO-differentiated HL-60 cells were treated with 20 μM dose of compound for the indicated time period prior to fMLP stimulation and DCFDA ROS production assay by FACS analysis.
Phox-I1 was then applied to primary murine neutrophils expressing the constitutively active NOX4. […] To further rule out that Phox-I1 and Phox-I2 may simply act as scavengers of ROS, dHL-60 cells were pre-stimulated with fMLP for 30 min prior to treatment with Phox-I1 or Phox-I2.

Pak = assay: immunoblot of phosphorylated Pak; assay type: cell-based, human; conditions: 18 hr treatment
Experimental: Whole-cell lysates were prepared by cell extraction using lysis buffer containing 20 mM Tris-HCl (pH 7.6), 100 mM NaCl, 10 mM MgCl2, 1% Triton X-100, 0.2% sodium deoxycholate, 1 mM phenylmethylsulfonyl fluoride, 10 μg/mL of leupeptin, 1 μg/mL of aprotinin, and 1 mM dithiothreitol for 30 min. Equal amounts of protein, as determined by Bradford assay, were resolved by SDS-PAGE. Specific proteins were detected by standard 9 immunoblotting procedures using the following primary antibodies: (Cell Signaling, 1:500 dilution) phospho-PAK1 (Ser144)/PAK2 (Ser141), (Sigma-Aldrich 1:500) β-Actin.
To analyze the biochemical specificity of these lead inhibitors on the effector pathways of active Rac1, undifferentiated HL-60 cells were treated with Phox-I1, Phox-I2, or NSC23766 for 18 hr. Immunoblot of the cell lysates was performed to probe the activity of Pak, a Rac effector other than p67^phox (FIG. 4B).

[2] = test system: primary murine neutrophils; assay: F-actin immunofluorescence, polarization upon fMLP stimulation; assay type: cell-based, mouse; conditions: 10 μM; untreated control about 80%
Experimental: Cells were pretreated with compound for 40 minutes prior to wash, and resuspended in HBSS with compound. Cells were allowed to adhere to fibronectin (Sigma Aldrich) coated glass coverslips (15 min) and then stimulated with 100 nM fMLP (3 min). Coverslips were then fixed with 3.7% paraformaldehyde (Sigma Aldrich) and then staining for […] was performed with rhodamine phalloidin per the manufacturer's instructions (Molecular Probes). Another method of addressing Rac-signaling specificity in neutrophils is by monitoring their ability to polarize actin to the leading edge upon fMLP stimulation. Neither Phox-I1, Phox-I2, nor an analog 13 (all at 10 μM), were able to block the Rac-mediated dynamic process of F-actin polarization to the leading edge of primary murine neutrophils as observed by F-actin immunofluorescence imaging (FIG. 4C, left panel). F-actin polarization was evident in about 80% of each treatment group of cells as in the control, untreated cells (FIG. 4C, right panel).

| Compound | IC50 ([1]; Neutrophil) | levels of superoxide already produced (dHL-60 cells) | phosphorylated Pak levels (Pak) | cells with F-actin polarization [2] | IC50 [1] |
| --- | --- | --- | --- | --- | --- |
| COc1ccc2c(c1)C1C=C(c3ccccc3)NN1C(c1cccc([N+](=O)[O-])c1)O2 (centres unmarked) [Phox-I1] | ~8 µM | do not affect | not | about 80% | – |
| O=[N+]([O-])c1cccc(C2Nc3ccc([N+](=O)[O-])cc3C3C=CCC32)c1 (centres unmarked) [Phox-I2] | – | do not affect | not | about 80% | ~6 µM |

— US9567347B2, “Use of small molecule inhibitors targeting the interaction between RAC GTPase and p67(phox)” (CHILDREN'S HOSPITAL MEDICAL CENTER, priority 2012, dated 2017)
